Measurements published in patent publication US20250388565A1, “ESTROGEN RECEPTOR ALPHA DEGRADERS AND METHODS OF USE THEREOF” (Relay Therapeutics, Inc., priority 2022, published 2025).

Biological target: T1, ERα protein (HiBiT-tagged) in ESR1_HiBiT KI MCF7 cells (Homo sapiens, UniProt P03372)
T1 sequence (P03372 1-595): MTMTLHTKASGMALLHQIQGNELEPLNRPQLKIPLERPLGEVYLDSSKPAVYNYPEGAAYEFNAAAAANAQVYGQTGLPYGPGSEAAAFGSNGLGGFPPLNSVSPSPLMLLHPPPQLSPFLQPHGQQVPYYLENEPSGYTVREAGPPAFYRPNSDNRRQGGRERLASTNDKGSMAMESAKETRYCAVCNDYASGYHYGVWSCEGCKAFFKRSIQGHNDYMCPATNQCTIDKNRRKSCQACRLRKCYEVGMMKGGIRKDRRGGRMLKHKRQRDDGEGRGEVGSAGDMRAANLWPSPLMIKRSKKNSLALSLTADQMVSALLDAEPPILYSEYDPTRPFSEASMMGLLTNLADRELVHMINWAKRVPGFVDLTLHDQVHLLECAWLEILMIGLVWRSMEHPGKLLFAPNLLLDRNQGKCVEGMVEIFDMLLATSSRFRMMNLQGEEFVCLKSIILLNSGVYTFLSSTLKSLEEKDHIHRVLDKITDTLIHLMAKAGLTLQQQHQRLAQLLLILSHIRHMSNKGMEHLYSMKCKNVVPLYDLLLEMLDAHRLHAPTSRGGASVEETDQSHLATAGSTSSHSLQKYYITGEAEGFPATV
Experiment: Nano Glo HiBiT Lytic Degradation Assay
Format: cell-based
Settings: 6 hours with compound, 14-point dose response 1:3, bell-shape curve fit, half-maximal effect of first Hill model, read-out: MCF7 ESR1 HiBiT - (DC50)
In short: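 HiBiT-tagged endogenous ERα remaining in MCF7 knock-in cells was quantified by lytic luminescence after a 6 h treatment. DC50 values derive from a bell-shaped curve, taken at the first Hill component's half-maximal effect.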

Row | Compound | DC50 [nM]
1 | Cc1cc(F)c([C@@H]2CC(F)(F)c3cc(O)ccc3[C@@H]2c2ccc(N3CCC(CN4CCN(c5ccc6c(c5)CN([C@H]5CCC(=O)NC5=O)C6=O)CC4)CC3)cc2)cc1F (single isomer, unassigned) [Compound I-325] | 11
2 | O=C1CC[C@H](N2Cc3cc(N4CCN(CC5CCN(c6ccc([C@@H]7c8ccc(O)cc8CO[C@@H]7c7ccc(F)cc7)cc6)CC5)CC4)ccc3C2=O)C(=O)N1 [Compound I-35, (S)-3-(5-(4-((1-(4-((3S,4R)-3-(4-fluorophenyl)-7-hydroxyisochroman-4-yl)phenyl)piperidin-4-yl)methyl)piperazin-1-yl)-1-oxoisoindolin-2-yl)piperidine-2,6-dione] | 0.3
3 | Cc1cc(N2CCC(CN3CCN(c4ccc5c(c4)CN([C@H]4CCC(=O)NC4=O)C5=O)CC3)CC2)ccc1[C@@H]1c2ccc(O)cc2CC[C@@H]1c1ccccc1 [Compound I-139, (S)-3-(5-(4-((1-(4-((1R,2S)-6-hydroxy-2-phenyl-1,2,3,4-tetrahydronaphthalen-1-yl)-3-methylphenyl)piperidin-4-yl)methyl)piperazin-1-yl)-1-oxoisoindolin-2-yl)piperidine-2,6-dione] | 0.76
4 | O=C1CC[C@H](N2Cc3cc(N4CCN(CC5CCN(c6ccc([C@H]7c8ccc(O)cc8CC[C@]78CCc7ccccc78)cc6)CC5)CC4)ccc3C2=O)C(=O)N1 [Compound I-259, (S)-3-(5-(4-((1-(4-((1R,1′R)-6′-hydroxy-2,3,3′,4′-tetrahydro-1′H-spiro[indene-1,2′-naphthalen]-1′-yl)phenyl)piperidin-4-yl)methyl)piperazin-1-yl)-1-oxoisoindolin-2-yl)piperidine-2,6-dione] | 98
5 | O=C1CCC(c2ccc(N3CCN(C4CCN(c5ccc([C@@H]6c7ccc(O)cc7CC[C@@H]6c6ccccc6)cc5)CC4)CC3)cc2)C(=O)N1 (single isomer, unassigned) [Compound I-40] | 370
6 | O=C1CCC(N2Cc3cc([C@@H]4CCN(CC5CCN(c6ccc([C@@H]7c8ccc(O)cc8CC[C@@H]7c7ccccc7)cc6)CC5)CC4(F)F)ccc3C2=O)C(=O)N1 (single isomer, unassigned) [II-91] | 20
7 | COc1cc(N2CCC(CN3CCN(c4ccc5c(c4)CN([C@H]4CCC(=O)NC4=O)C5=O)CC3)CC2)ccc1[C@@H]1c2ccc(O)cc2CC[C@@H]1C1CCCCC1 [Compound I-152, (S)-3-(5-(4-((1-(4-((1S,2R)-2-cyclohexyl-6-hydroxy-1,2,3,4-tetrahydronaphthalen-1-yl)-3-methoxyphenyl)piperidin-4-yl)methyl)piperazin-1-yl)-1-oxoisoindolin-2-yl)piperidine-2,6-dione] | 1.43
8 | O=C1CC[C@H](N2Cc3cc(N4CCN(CC5CCN(c6ccc([C@H]7c8ccc(O)cc8CCC78CCCCC8)cc6)CC5)CC4)ccc3C2=O)C(=O)N1 [Compound I-142] | ≥ 10000
9 | CC(C)c1ccccc1[C@@H]1OCc2cc(O)ccc2[C@@H]1c1ccc(N2CCC(CN3CCN(c4ccc5c(c4)CN([C@H]4CCC(=O)NC4=O)C5=O)CC3)CC2)cc1 [Compound I-352, (S)-3-(5-(4-((1-(4-((3R,4S)-7-hydroxy-3-(2-isopropylphenyl)isochroman-4-yl)phenyl)piperidin-4-yl)methyl)piperazin-1-yl)-1-oxoisoindolin-2-yl)piperidine-2,6-dione] | 17
10 | C[C@@H]1CN(CC2CCN(c3ccc([C@@H]4c5ccc(O)cc5CC[C@@H]4c4ccccc4)cc3)CC2)CCN1c1ccc2c(c1)CN([C@H]1CCC(=O)NC1=O)C2=O (single isomer, unassigned) [II-3] | 6
11 | O=C1CCC(N2Cc3cc(N4CCC(CN5CCC(c6ccc([C@H]7c8ccc(O)cc8CC[C@H]7c7ccccc7)cc6)CC5)CC4)ccc3C2=O)C(=O)N1 (single isomer, unassigned) [II-61] | 0.08
12 | O=C1CC[C@H](N2Cc3cc(N4CCN(CC5CCN(c6ccc([C@@H]7c8ccc(O)cc8CC[C@@H]7C7CCCCC7)c(F)c6)CC5)CC4)ccc3C2=O)C(=O)N1 [Compound I-137, (S)-3-(5-(4-((1-(4-((1S,2R)-2-cyclohexyl-6-hydroxy-1,2,3,4-tetrahydronaphthalen-1-yl)-3-fluorophenyl)piperidin-4-yl)methyl)piperazin-1-yl)-1-oxoisoindolin-2-yl)piperidine-2,6-dione] | ≥ 10000
13 | O=C1CC[C@H](N2Cc3cc(N4CCN(CC5CCN(c6ccc([C@@H]7c8ccc(O)cc8CC[C@@H]7CC(F)(F)F)cc6)CC5)CC4)ccc3C2=O)C(=O)N1 [Compound I-157, (3S)-3-[5-[4-[[1-[4-[(1R,2R)-6-hydroxy-2-(2,2,2-trifluoroethyl)tetralin-1-yl]phenyl]-4-piperidyl]methyl]piperazin-1-yl]-1-oxo-isoindolin-2-yl]piperidine-2,6-dione] | 0.86
14 | O=C1CC[C@H](N2Cc3cc(N4CCN(CC5CCN(c6ccc([C@@H]7c8ccc(O)cc8CC[C@@H]7c7cccc8c7CCCC8)cc6)CC5)CC4)ccc3C2=O)C(=O)N1 (single isomer, unassigned) [Compound I-62] | 2
15 | O=C1CC[C@H](N2Cc3cc(N4CCN(CC5CCN(c6c(F)cc([C@H]7c8ccc(O)cc8CC[C@H]7c7ccccc7)cc6F)CC5)CC4)ccc3C2=O)C(=O)N1 [II-83] | 424
16 | O=C1CC[C@H](N2Cc3cc(N4CCN(CC5CCN(c6ccc([C@@H]7c8ccc(O)cc8CC[C@@H]7c7ccc8c(c7)CC8)cc6)CC5)CC4)ccc3C2=O)C(=O)N1 (single isomer, unassigned) [Compound I-57] | 7
17 | Cc1cc(F)cc(C)c1[C@H]1CCc2cc(O)ccc2[C@H]1c1ccc(N2CCC(CN3CCN(c4ccc5c(c4)CN([C@H]4CCC(=O)NC4=O)C5=O)CC3)CC2)cc1 [II-72] | ≥ 10000
18 | O=C1CC[C@H](N2Cc3cc(N4CCN(CC5CCN(c6ccc([C@H]7c8ccc(O)cc8C(F)(F)C[C@H]7c7cc(F)ccc7F)cc6)CC5)CC4)ccc3C2=O)C(=O)N1 [Compound I-317, (S)-3-(5-(4-((1-(4-((1S,2R)-2-(2,5-difluorophenyl)-4,4-difluoro-6-hydroxy-1,2,3,4-tetrahydronaphthalen-1-yl)phenyl)piperidin-4-yl)methyl)piperazin-1-yl)-1-oxoisoindolin-2-yl)piperidine-2,6-dione] | 3
19 | O=C1CC(N2Cc3cc(N4CCN(CC5CCN(c6ccc([C@@H]7c8ccc(O)cc8CC[C@@H]7c7ccccc7)cc6)CC5)CC4)ccc3C2=O)C(=O)N1 (stereo partly drawn) [Compound I-274, 3-(5-(4-((1-(4-((1R,2S)-6-hydroxy-2-phenyl-1,2,3,4-tetrahydronaphthalen-1-yl)phenyl)piperidin-4-yl)methyl)piperazin-1-yl)-1-oxoisoindolin-2-yl) pyrrolidine-2,5-dione] | 1
20 | O=C1CC[C@H](N2Cc3cc(N4CCN(CC5CCN(c6ccc([C@@H]7c8ccc(C(=O)O)cc8CC[C@@H]7c7ccccc7)cc6)CC5)CC4)ccc3C2=O)C(=O)N1 (single isomer, unassigned) [Compound I-2] | ≥ 10000
21 | O=C1CC[C@H](N2Cc3cc(N4CCN(CC5CCN(c6ccc([C@@H]7c8ccc(O)cc8CC[C@@H]7CC7CCCC7)cc6)CC5)CC4)ccc3C2=O)C(=O)N1 [Compound I-121, (S)-3-(5-(4-((1-(4-((1R,2R)-2-(cyclopentylmethyl)-6-hydroxy-1,2,3,4-tetrahydronaphthalen-1-yl)phenyl)piperidin-4-yl)methyl)piperazin-1-yl)-1-oxoisoindolin-2-yl)piperidine-2,6-dione] | 3
22 | O=C1CC[C@H](N2Cc3cc(N4CCN(CC5CCN(c6ccc([C@@H]7c8ccc(O)cc8CO[C@@H]7c7ccccc7)cc6)CC5)CC4)ccc3C2=O)C(=O)N1 [Compound I-3, (S)-3-(5-(4-((1-(4-((3S,4R)-7-hydroxy-3-phenylisochroman-4-yl)phenyl)piperidin-4-yl)methyl)piperazin-1-yl)-1-oxoisoindolin-2-yl)piperidine-2,6-dione] | 0.27
23 | O=C1CC[C@H](N2Cc3cc(N4CCN(CC5CCN(c6ccc([C@@H]7c8ccc(O)cc8CO[C@@H]7c7ccc(C(F)(F)F)cc7)cc6)CC5)CC4)ccc3C2=O)C(=O)N1 (single isomer, unassigned) [Compound I-36] | 80
24 | Cn1nc([C@H]2CCC(=O)NC2=O)c2ccc(N3CCN(CC4CCN(c5ccc([C@@H]6c7ccc(O)cc7CC[C@@H]6c6ccccc6)cc5)CC4)CC3)cc21 (single isomer, unassigned) [Compound I-295] | 0.84
25 | O=C1CCC(c2ccc(N3CCC4(CCN(CC5CCN(c6ccc([C@@H]7c8ccc(O)cc8C(F)(F)C[C@@H]7c7ccccc7)cc6)CC5)C4)C3)cc2)C(=O)N1 (single isomer, unassigned) [Compound I-282, 3-(4-((R*)-7-((1-(4-((1R,2S)-4,4-difluoro-6-hydroxy-2-phenyl-1,2,3,4-tetrahydronaphthalen-1-yl)phenyl)piperidin-4-yl)methyl)-2,7-diazaspiro[4.4]nonan-2-yl)phenyl)piperidine-2,6-dione] | 24.5
